{"source": "patent US20140072990A1", "about": "“FLUORESCENT SUBSTRATE FOR DETECTION OF ENZYMATIC ACTIVITY OF NITRILE-RELATED ENZYME” (The University of Tokyo, priority 2010, published 2014)", "key": {"[1]": {"test": "Fluorescence quantum yield measurement of compounds 1 to 6", "assay_type": "physicochemical", "protocol": "Compounds 1 to 6 obtained above were measured for their fluorescence.\nCompounds 1 to 6 were also measured for their fluorescence quantum yield (Φfl). […] With respect to compounds 5 and 6, it should be noted that their fluorescence quantum yields were calculated as values in isolated form based on the concentration ratio determined by HPLC."}, "[2]": {"biological_target": "T1, Rhodococcus rhodochrous strain J1-derived nitrile hydratase (Rhodococcus rhodochrous, UniProt P21219+P21220)", "T1 construct": "made in house; host or cells: Rhodococcus rhodochrous ATCC12674 transformed with pSJ034; crude cell-free extract", "T1 sequence (P21219 1-203)": "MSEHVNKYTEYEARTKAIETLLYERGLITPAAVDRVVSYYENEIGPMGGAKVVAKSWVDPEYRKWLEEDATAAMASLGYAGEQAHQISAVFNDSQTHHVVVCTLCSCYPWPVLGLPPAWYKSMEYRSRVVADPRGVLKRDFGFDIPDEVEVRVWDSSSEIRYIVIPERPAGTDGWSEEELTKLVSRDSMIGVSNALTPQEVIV", "T1 sequence (P21220 1-229)": "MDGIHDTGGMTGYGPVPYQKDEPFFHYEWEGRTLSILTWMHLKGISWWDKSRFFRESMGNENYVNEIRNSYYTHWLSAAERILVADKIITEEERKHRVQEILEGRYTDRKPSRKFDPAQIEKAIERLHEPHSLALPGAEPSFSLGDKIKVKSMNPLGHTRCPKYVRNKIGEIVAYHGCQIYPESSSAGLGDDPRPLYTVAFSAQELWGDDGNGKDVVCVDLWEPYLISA", "test": "Nitrile hydratase-catalyzed reaction with cell-free extract, detection with fluorescence imager (Example 2)", "assay_type": "biochemical", "details": "30° C., 1 hour, excited at 488 nm, detected at 530 nm; vector pK4 control showed no change", "text": "Plasmid pSJ034 designed to constitutively express Rhodococcus rhodochrous strain J1-derived nitrile hydratase in Rhodococcus bacterial cells was introduced into Rhodococcus rhodochrous strain ATCC12674. pSJ034 has been prepared from plasmid pSJ023 as described in the specification of JP 10-337185 A. pSJ023 was deposited as a transformant, R. rhodochrous ATCC12674/pSJ023 (FERM BP-6232), with the International Patent Organism Depositary, the National Institute of Advanced Industrial Science and Technology.\nRhodococcus rhodochrous strain ATCC12674 was transformed with plasmid pSJ034 to prepare ATCC12674/pSJ034. The strain 12674 was also transformed with vector pK4 for use in a control experiment.\nThe colony was cultured as follows. The colony was inoculated into a kanamycin (50 mg/L)-containing MYK medium (10 ml) and pre-cultured at 30° C. for 24 hours. […]\n10 μL of sodium phosphate buffer (pH 7.0), 75 μL of sterilized water and 5 μL of 0.01 mM nitrile fluorescent substrate (compound 2: dissolved in 10% DMSO) were mixed together and pre-incubated at 30° C. […] After the reaction at 30° C. for 1 hour, the mixture was transferred to a 96-well microplate and fluorescence was detected with a fluorescence imager (BioRad Pharos FX molecular Imager, excited at 488 nm, detected at 530 nm)."}, "[3]": {"test": "Fluorescence quantum yield, absolute PL quantum yield measurement system (Quantaurus-QY)", "assay_type": "physicochemical", "details": "0.2 μM, 0.02% DMSO, 200 mM sodium phosphate buffer pH 7.3, 470 nm excitation light", "protocol": "The absorption spectra and fluorescence quantum yields of the compounds were measured as follows.\nA 1 mM solution of compound 7 in DMSO was prepared and this solution was added to 200 mM sodium phosphate buffers of pH 2 to 12 to prepare 1 μM sample solutions containing 0.1% DMSO. These sample solutions were measured for their absorption spectra between 300 nm and 600 nm with an ultraviolet and visible spectrophotometer UV-2450 (Shimadzu Corporation, Japan). In addition, a 0.2 μM sample solution of compound 7 containing 0.02% DMSO in 200 mM sodium phosphate buffer (pH 7.3) was prepared and measured for its fluorescence quantum yield using an absolute PL quantum yield measurement system, Quantaurus-QY (Hamamatsu Photonics K.K., Japan), under irradiation with 470 nm excitation light."}, "[4]": {"tested_on": "Rhodococcus sp. strain SK92-derived nitrilase", "test": "Nitrilase-catalyzed reaction for 24 hours, observation by the naked eye (Example 4)", "assay_type": "biochemical", "details": "0.1 mM substrate stock, JM109/pUC118 control showed little change in color", "protocol": "10 μL of sodium phosphate buffer (pH 7.0), 75 μL of sterilized water and 5 μL of 0.1 mM nitrile fluorescent substrate (compound 2: dissolved in DMSO) were mixed together and pre-incubated at 30° C. A cell-free extract (10 μL), which had been prepared in the same manner as shown in Example 3, was added to initiate the reaction."}, "[5]": {"biological_target": "T1, Rhodococcus rhodochrous strain J1-derived nitrile hydratase", "test": "Detection of nitrile hydratase-catalyzed enzymatic reaction using fluorometer (Example 5)", "assay_type": "biochemical", "details": "for increase in fluorescence in comparison with a solution not containing the cell-free extract: crude nitrile hydratase solution, 37° C., 5 h after addition, 490 nm excitation light", "protocol": "Nitrile hydratase solution was prepared in the same manner as shown in Example 2.\n(§1) 178 μL of sodium phosphate buffer (200 mM, pH 7.3) and 2 μL of 1 mM fluorescent substrate (compound 7 or compound 2: dissolved in DMSO) were mixed together and pre-incubated at 37° C. The cell-free extract prepared above (20 μL) was added to initiate the reaction. Sampling was conducted at one hour intervals by addition of 380 μL sodium phosphate buffer (200 mM, pH 7.3) to 20 μL reaction solution, and each sample was measured for its fluorescence using a spectrophotofluorometer, model F-4500 (Hitachi High-Technologies Corporation, Japan). The measurement was performed with 490 nm excitation light under the following conditions: a slit width of 2.5 nm/2.5 nm, a photomultiplier voltage of 700 V and 37° C."}, "[6]": {"tested_on": "Rhodococcus sp. strain SK92-derived nitrilase", "test": "Nitrilase-catalyzed reaction with cell-free extract, detection with fluorescence imager (Example 3)", "assay_type": "biochemical", "details": "30° C., 1 hour, excited at 488 nm, detected at 530 nm; JM109/pUC118 control showed no change", "protocol": "10 μL of sodium phosphate buffer (pH 7.0), 75 μL of sterilized water and 5 μL of 0.01 mM nitrile fluorescent substrate (compound 2: dissolved in 10% DMSO) were mixed together and pre-incubated at 30° C. The cell-free extract prepared above (10 μL) was added to initiate the reaction. After the reaction at 30° C. for 1 hour, the mixture was transferred to a 96-well microplate and fluorescence was detected with a fluorescence imager (BioRad Pharos FX molecular Imager, excited at 488 nm, detected at 530 nm).\nA recombinant E. coli, JM109/pSK002, which highly expresses Rhodococcus sp. strain SK92-derived nitrilase (JP 8-173169 A) was inoculated into 1 ml of a 50 ampicillin-containing LB medium (1% Bactotryptone, 0.5% Bactoyeast extract, 0.5% NaCl) and pre-cultured at 37° C. for 7 hours. The culture broth was taken in a volume of 0.1 ml and added to 100 ml of the same medium (containing 50 μg/ml ampicillin and 1 mM IPTG), followed by shaking culture at 37° C. for 15 hours. The resulting culture broth was centrifuged (3,700×g, 10 minutes, 4° C.) to collect the cells, which were then washed with 10 mM sodium phosphate buffer (pH 7.0) and suspended in the same buffer. As a control strain, JM109/pUC118 was used. […]\nIn the same manner as shown in Example 2, the reaction was performed using a nitrile fluorescent substrate (compound 2), followed by detection with a fluorescence imager."}, "[7]": {"tested_on": "Rhodococcus sp. strain SK92-derived nitrilase", "test": "HPLC analysis on nitrilase-catalyzed reaction solution (Example 6)", "assay_type": "biochemical", "protocol": "(§2) After reaction at 37° C. for 5 hours as described above, the reaction solution was analyzed by HPLC under the following conditions. • Model: fluid delivery pump PU-2080 (JASCO) • Column: Inertsil ODS-3 (4.6×250 mm) column (GL Sciences Inc.) • Solvent: eluted with a linear gradient from 75% acetonitrile/0.1% TFA in water (0 min) to 15% acetonitrile/0.1% TFA in water (30 min) • Detection: detector MD-2010 (JASCO), monitored by absorption at 500 nm\nNitrilase activity was analyzed in accordance with the procedures shown in Example 4."}, "[8]": {"biological_target": "T1, Rhodococcus rhodochrous strain J1-derived nitrile hydratase", "test": "HPLC analysis on nitrile hydratase-catalyzed reaction solution (Example 5)", "assay_type": "biochemical", "details": "37° C., 5 hours, absorption at 500 nm", "protocol": "as §2"}, "[9]": {"tested_on": "Rhodococcus sp. strain SK92-derived nitrilase", "test": "Detection of nitrilase-catalyzed enzymatic reaction using fluorometer (Example 6)", "assay_type": "biochemical", "protocol": "as §1\nNitrilase solution was prepared in the same manner as shown in Example 3.\nDetection was conducted in accordance with the procedures shown in Example 5, provided that the compound used in the experiment was compound 7 and the enzyme solutions used were a cell-free extract derived from JM109/pSK002 (containing nitrilase) and a cell-free extract derived from the above control strain JM109/pTrc99A (having no nitrilase activity)."}, "[10]": {"test": "Stability of product in nitrile hydratase-catalyzed reaction solution by HPLC (Example 7)", "assay_type": "in vitro ADME", "details": "absorption at 500 nm", "protocol": "(§3) Product stability after enzymatic reaction was studied by HPLC analysis.\n(§4) For HPLC analysis of the nitrile hydratase-catalyzed reaction solution (160 μL), the above pump, column, solvent conditions and detector were used to monitor absorption at 500 nm. On the other hand, for analysis of the nitrilase-catalyzed reaction solution (160 μL), the same procedure as used for analysis of the nitrile hydratase-catalyzed reaction solution was repeated to monitor absorption at 500 nm."}, "[11]": {"test": "Stability of product in nitrilase-catalyzed reaction solution by HPLC (Example 7)", "assay_type": "in vitro ADME", "details": "absorption at 500 nm", "protocol": "as §3, §4"}, "[12]": {"details": "calculated as values in isolated form based on the concentration ratio determined by HPLC (mixture of compounds 5 and 6)"}}, "note": "Like-named read-outs stand apart in the source and are kept apart here.", "data": [{"smiles": "COC(=O)c1ccc(C#N)cc1-c1c2ccc(=O)cc-2oc2cc(O)ccc12", "note": "[compound 1]", "values": [{"measurement": "Fluorescence quantum yield (Φf1)", "setting": "[1]", "value": 0.007}]}, {"smiles": "COC(=O)c1cc(C#N)ccc1-c1c2ccc(=O)cc-2oc2cc(O)ccc12", "note": "[compound 2]", "values": [{"measurement": "change in intensity of fluorescence with nitrile hydratase-expressing recombinant cell-free extract", "setting": "[2]", "value": "significant increase in the intensity of fluorescence"}, {"measurement": "fluorescence quantum yield", "setting": "[3]", "value": 0.172}, {"measurement": "fluorescence observed by the naked eye with nitrilase-expressing recombinant cell-free extract", "setting": "[4]", "value": "significant green fluorescence was observed"}, {"measurement": "increase in fluorescence in comparison with a solution not containing the cell-free extract", "setting": "[5]", "value": "~3.9", "unit": "fold"}, {"measurement": "Fluorescence quantum yield (Φf1)", "setting": "[1]", "value": 0.161}, {"measurement": "change in intensity of fluorescence with nitrilase-expressing recombinant cell-free extract", "setting": "[6]", "value": "significant increase in the intensity of fluorescence"}]}, {"smiles": "COC(=O)c1ccc(C(N)=O)cc1-c1c2ccc(=O)cc-2oc2cc(O)ccc12", "note": "[compound 3]", "values": [{"measurement": "Fluorescence quantum yield (Φf1)", "setting": "[1]", "value": 0.018}]}, {"smiles": "COC(=O)c1cc(C(N)=O)ccc1-c1c2ccc(=O)cc-2oc2cc(O)ccc12", "note": "[compound 4]", "values": [{"measurement": "Fluorescence quantum yield (Φf1)", "setting": "[1]", "value": 0.397}]}, {"smiles": "COC(=O)c1ccc(C(=O)O)cc1-c1c2ccc(=O)cc-2oc2cc(O)ccc12", "note": "[compound 5]", "values": [{"measurement": "Fluorescence quantum yield (Φf1)", "setting": "[1]; [12]", "value": 0.0729}]}, {"smiles": "COC(=O)c1cc(C(=O)O)ccc1-c1c2ccc(=O)cc-2oc2cc(O)ccc12", "note": "[compound 6]", "values": [{"measurement": "Fluorescence quantum yield (Φf1)", "setting": "[1]; [12]", "value": 0.565}]}, {"smiles": "N#Cc1ccc(-c2c3ccc(=O)cc-3oc3cc(O)ccc23)c(C(=O)OCc2ccc(Cl)cc2)c1", "note": "[compound 7, 5-cyanofluorescein-4-chlorobenzyl ester]", "values": [{"measurement": "fluorescence quantum yield", "setting": "[3]", "value": 0.154}, {"measurement": "HPLC peak of substrate after nitrilase-catalyzed reaction", "setting": "[7]; JM109/pSK002-derived cell-free extract, absorption at 500 nm", "value": "disappeared, while a peak of a new product generated by the enzymatic reaction appeared"}, {"measurement": "reaction product by HPLC with control cell-free extract", "setting": "[7]; JM109/pTrc99A-derived cell-free extract", "value": "no reaction product was observed"}, {"measurement": "increase in fluorescence in comparison with a solution not containing the cell-free extract", "setting": "[5]", "value": "~7.2", "unit": "fold"}, {"measurement": "increase in fluorescence relative to that of compound 2", "setting": "[5]; nitrile hydratase reaction, compound 7 versus compound 2", "value": 1.5, "unit": "fold"}, {"measurement": "HPLC peak of substrate after nitrile hydratase-catalyzed reaction", "setting": "[8]", "value": "disappeared, while a peak of a new product generated by the enzymatic reaction appeared"}, {"measurement": "increase in fluorescence in comparison with the absence of the cell-free extract", "setting": "[9]; JM109/pSK002-derived cell-free extract (containing nitrilase), 5 h after addition", "value": "~7.5", "unit": "fold"}, {"measurement": "increase in fluorescence with control cell-free extract", "setting": "[9]; JM109/pTrc99A-derived cell-free extract (having no nitrilase activity)", "value": "little increase in its fluorescence"}]}, {"smiles": "NC(=O)c1ccc(-c2c3ccc(=O)cc-3oc3cc(O)ccc23)c(C(=O)OCc2ccc(Cl)cc2)c1", "note": "[compound 9, 5-CONH2 fluorescein 4-chlorobenzyl ester]", "values": [{"measurement": "HPLC peak corresponding to ester hydrolysis product 5-CONH2 fluorescein", "setting": "[10]", "value": "not observed"}]}, {"smiles": "O=C(O)c1ccc(-c2c3ccc(=O)cc-3oc3cc(O)ccc23)c(C(=O)OCc2ccc(Cl)cc2)c1", "note": "[compound 11]", "values": [{"measurement": "HPLC peak corresponding to ester hydrolysis product 5-carboxylfluorescein", "setting": "[11]", "value": "not observed"}]}]}
